Reference: patent US6737383B1, “Herbicidal oxadiazolidines” (priority 1999, dated 2004)

Key:
[1] = test system: wheat; experiment: Test B pre/postemergence wheat; format: in vivo, Triticum aestivum
Method in brief: (§1)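 Response is a visual 0-to-10 score relative to untreated plants, where 0 means no effect and 10 means complete control, taken twelve to sixteen days after application. Treatments went onto soil at planting and onto foliage of 1- to 4-leaf plants, using a surfactant-containing non-phytotoxic solvent.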

[2] = test system: rice; experiment: Test B flood test rice; format: in vivo, Oryza sativa
Method in brief: (§2)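 Each value is a visual injury score relative to controls, with 10 meaning complete control and 0 no effect. Evaluation took place twelve to sixteen days after the 2-leaf-stage plants were treated and kept in the greenhouse.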

[3] = test system: smallflower flatsedge; experiment: Test B flood test smallflower flatsedge; format: in vivo, Cyperus difformis
Method in brief: as §2

[4] = test system: purple nutsedge; experiment: Test B pre/postemergence purple nutsedge; format: in vivo, Cyperus rotundus
Method in brief: as §1

[5] = test system: morningglory; experiment: Test B pre/postemergence morningglory; format: in vivo, Ipomoea hederacea
Method in brief: as §1

[6] = test system: duck salad; experiment: Test B flood test duck salad; format: in vivo, Heteranthera limosa
Method in brief: as §2

[7] = test system: giant foxtail; experiment: Test B pre/postemergence giant foxtail; format: in vivo, Setaria faberii
Method in brief: as §1

[8] = test system: soybean; experiment: Test B pre/postemergence soybean; format: in vivo, Glycine max
Method in brief: as §1

[9] = test system: bedstraw; experiment: Test B pre/postemergence bedstraw; format: in vivo, Galium aparine; conditions: Postemergence
Method in brief: as §1

[10] = test system: corn; experiment: Test B pre/postemergence corn; format: in vivo, Zea mays
Method in brief: as §1

[11] = test system: blackgrass; experiment: Test B pre/postemergence blackgrass; format: in vivo, Alopecurus myosuroides
Method in brief: as §1

[12] = test system: cocklebur; experiment: Test B pre/postemergence cocklebur; format: in vivo, Xanthium strumarium
Method in brief: as §1

[13] = test system: velvetleaf; experiment: Test B pre/postemergence velvetleaf; format: in vivo, Abutilon theophrasti
Method in brief: as §1

[14] = test system: crabgrass; experiment: Test B pre/postemergence crabgrass; format: in vivo, Digitaria sanguinalis
Method in brief: as §1

[15] = test system: bamyardgrass; experiment: Test B flood test barnyardgrass; format: in vivo, Echinochloa crus-galli
Method in brief: as §2

[16] = test system: surinam grass; experiment: Test B pre/postemergence surinam grass; format: in vivo, Brachiaria decumbens
Method in brief: as §1

[17] = test system: wild oat; experiment: Test B pre/postemergence wild oat; format: in vivo, Avena fatua
Method in brief: as §1

[18] = Postemergence, Rate 62 g/ha, scale 0 to 10, 0 is no effect, 10 is complete control
[19] = Postemergence, Rate 125 g/ha, scale of 0 to 10 where 0 is no effect and 10 is complete control
[20] = Preemergence, Rate 62 g/ha, scale of 0 to 10 where 0 is no effect and 10 is complete control
[21] = Preemergence, Rate 125 g/ha, scale of 0 to 10 where 0 is no effect and 10 is complete control
[22] = Preemergence, Rate 250 g/ha, scale 0 to 10 (0 no effect, 10 complete control)
[23] = Preemergence, Rate 500 g/ha, scale of 0 to 10 where 0 is no effect and 10 is complete control
[24] = Rate 500 g/ha, Postemergence, scale 0 to 10, 0 is no effect, 10 is complete control
[25] = Rate 62 g/ha, flood test species, Pre-emergence, visual evaluation after twelve to sixteen days
[26] = Rate 125 g/ha, under heading Pre-emergence, flood test species, visual evaluation after twelve to sixteen days
[27] = Rate 250 g/ha, Pre-emergence (flood test species), scale 0 to 10, 0 is no effect, 10 is complete control
[28] = Rate 500 g/ha, Pre-emergence section of Table B, 0 to 10 scale (0 no effect, 10 complete control)
[29] = Postemergence, Rate 250 g/ha, scale of 0 to 10, 0 is no effect, 10 is complete control

CC(C)N(C(=O)n1oc(=O)n(CCC(=O)N(C)C)c1=O)c1ccccc1 [Compound 671]
Plant response rating, Wheat [1, 18]: 0
Wheat plant response rating [1, 19]: 0
Wheat plant response rating [1, 20]: 0
Plant response rating, Wheat [1, 21]: 0
Plant response rating, Wheat [1, 22]: 3
Plant response rating, Wheat [1, 23]: 8
Wheat plant response rating [1, 24]: 6
Plant response rating, Rice (0 to 10 scale, 0 is no effect, 10 is complete control) [2, 25]: 0
Rice plant response rating (0 to 10 scale, 0 is no effect, 10 is complete control) [2, 26]: 0
Rice plant response rating [2, 27]: 0
Rice plant response rating [2, 28]: 0
Plant response rating, S. Flatsedge (0 to 10 scale, 0 is no effect, 10 is complete control) [3, 25]: 0
S. Flatsedge plant response rating (0 to 10 scale, 0 is no effect, 10 is complete control) [3, 26]: 0
S. Flatsedge plant response rating [3, 27]: 0
S. Flatsedge plant response rating [3, 28]: 0
Plant response rating, Nutsedge [4, 18]: 0
Nutsedge plant response rating [4, 19]: 0
Nutsedge plant response rating [4, 20]: 0
Plant response rating, Nutsedge [4, 21]: 2
Plant response rating, Nutsedge [4, 22]: 6
Plant response rating, Nutsedge [4, 23]: 6
Nutsedge plant response rating [4, 24]: 0
Plant response rating, Morningglory [5, 18]: 1
Morningglory plant response rating [5, 19]: 1
Morningglory plant response rating [5, 29]: 1
Morningglory plant response rating [5, 20]: 0
Plant response rating, Morningglory [5, 21]: 2
Plant response rating, Morningglory [5, 22]: 5
Plant response rating, Morningglory [5, 23]: 8
Morningglory plant response rating [5, 24]: 6
Plant response rating, Ducksalad (0 to 10 scale, 0 is no effect, 10 is complete control) [6, 25]: 0
Ducksalad plant response rating (0 to 10 scale, 0 is no effect, 10 is complete control) [6, 26]: 0
Ducksalad plant response rating [6, 27]: 0
Ducksalad plant response rating [6, 28]: 0
Plant response rating, Giant foxtail [7, 18]: 5
Giant foxtail plant response rating [7, 19]: 5
Giant foxtail plant response rating [7, 29]: 9
Giant foxtail plant response rating [7, 20]: 8
Plant response rating, Giant foxtail [7, 21]: 9
Plant response rating, Giant foxtail [7, 22]: 10
Plant response rating, Giant foxtail [7, 23]: 10
Giant foxtail plant response rating [7, 24]: 9
Plant response rating, Soybean [8, 18]: 2
Soybean plant response rating [8, 19]: 2
Soybean plant response rating [8, 20]: 0
Plant response rating, Soybean [8, 21]: 0
Plant response rating, Soybean [8, 22]: 0
Plant response rating, Soybean [8, 23]: 3
Soybean plant response rating [8, 24]: 4
Bedstraw plant response rating ([9]; Rate 125 g/ha, scale of 0 to 10 where 0 is no effect and 10 is complete control): 0
Bedstraw plant response rating ([9]; Rate 250 g/ha, scale of 0 to 10, 0 is no effect, 10 is complete control): 0
Bedstraw plant response rating ([9]; Rate 500 g/ha, scale 0 to 10, 0 is no effect, 10 is complete control): 0
Plant response rating, Corn [10, 18]: 0
Corn plant response rating [10, 19]: 0
Corn plant response rating [10, 29]: 0
Corn plant response rating [10, 20]: 0
Plant response rating, Corn [10, 21]: 0
Plant response rating, Corn [10, 22]: 3
Plant response rating, Corn [10, 23]: 9
Corn plant response rating [10, 24]: 5
Plant response rating, Blackgrass [11, 18]: 0
Blackgrass plant response rating [11, 19]: 6
Blackgrass plant response rating [11, 29]: 8
Blackgrass plant response rating [11, 20]: 5
Plant response rating, Blackgrass [11, 21]: 7
Plant response rating, Blackgrass [11, 22]: 8
Plant response rating, Blackgrass [11, 23]: 10
Blackgrass plant response rating [11, 24]: 8
Plant response rating, Cocklebur [12, 18]: 0
Cocklebur plant response rating [12, 19]: 0
Cocklebur plant response rating [12, 29]: 0
Cocklebur plant response rating [12, 20]: 0
Plant response rating, Cocklebur [12, 21]: 0
Plant response rating, Cocklebur [12, 22]: 0
Plant response rating, Cocklebur [12, 23]: 1
Cocklebur plant response rating [12, 24]: 1
Plant response rating, Velvetleaf [13, 18]: 0
Velvetleaf plant response rating [13, 19]: 0
Velvetleaf plant response rating [13, 20]: 2
Plant response rating, Velvetleaf [13, 21]: 7
Plant response rating, Velvetleaf [13, 22]: 7
Plant response rating, Velvetleaf [13, 23]: 9
Velvetleaf plant response rating [13, 24]: 3
Plant response rating, Crabgrass [14, 18]: 1
Crabgrass plant response rating [14, 19]: 1
Crabgrass plant response rating [14, 29]: 8
Crabgrass plant response rating [14, 20]: 4
Plant response rating, Crabgrass [14, 21]: 8
Plant response rating, Crabgrass [14, 22]: 8
Plant response rating, Crabgrass [14, 23]: 9
Crabgrass plant response rating [14, 24]: 9
Plant response rating, Barnyardgrass (0 to 10 scale, 0 is no effect, 10 is complete control) [15, 25]: 0
Barnyardgrass plant response rating (0 to 10 scale, 0 is no effect, 10 is complete control) [15, 26]: 0
Barnyardgrass plant response rating [15, 27]: 0
Barnyardgrass plant response rating [15, 28]: 0
Plant response rating, B. signalgrass [16, 18]: 0
Plant response rating, B. signalgrass [16, 19]: 1
B. signalgrass plant response rating [16, 29]: 6
B. signalgrass plant response rating [16, 20]: 4
Plant response rating, B. signalgrass [16, 21]: 6
Plant response rating, B. signalgrass [16, 22]: 7
Plant response rating, B. signalgrass [16, 23]: 9
B. signalgrass plant response rating [16, 24]: 8
Plant response rating, Wild oats [17, 18]: 0
Wild oats plant response rating [17, 19]: 0
Wild oats plant response rating [17, 20]: 0
Plant response rating, Wild oats [17, 21]: 0
Plant response rating, Wild oats [17, 22]: 7
Plant response rating, Wild oats [17, 23]: 5
Wild oats plant response rating [17, 24]: 0
